From PubChem BioAssay (NCI)
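Growth conditions: 96-well plates. Treatment: test compound, 48 hours, 5 concentrations. Analysis: linear interpolation between bracketing concentrations; unreached endpoints set to highest concentration. Abbreviation: GI50, concentration required for 50% inhibition of growth. Definition used: TGI = concentration required for complete inhibition of growth.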

The compounds below were run on LOX IMVI melanoma (assay: inhibition of tumour cell growth, NCI panel, 48 h).

Row | Compound | GI50 [µM] | TGI [µM]
1 | CC(=O)OC[C@]1(C)C=C2C(=O)[C@](C)(O)C3(CC3)C(C)=C2[C@H]1O | 0.0875 | 0.65
2 | Oc1ccc(NCc2nc3ccccc3[nH]2)cc1 | 73.9 | > 100
3 | C[C@]12CC[C@H]3[C@@H](CC=C4C[C@@H](O)CC[C@@]43C)[C@@H]1CC[C@@H]2N(CCO)CCO | – | > 100
4 | O=C1c2cc(Cl)ccc2S(=O)(=O)c2c(NCCCNCCO)nc3ccccc3c21 | 1.58 | 2.95
5 | CC(C)(C)OC(=O)N1CCc2c(sc3ncnc(N/N=C/c4cccc5ccccc45)c23)C1 | 3.84 | 25.5
6 | CC[C@@H]1CN(C)[C@H]2Cc3c([nH]c4ccccc34)C(=O)C[C@H]1C2C(=O)OC (some centres not stated) | – | > 100
7 | CCN(CC)c1ccc(/C=C/c2ccc3cc(C)ccc3[n+]2CC)cc1 | 0.0666 | 1.2
8 | Cc1ccc2c(c1)[n+]([O-])c(N)n[n+]2[O-] | – | > 100
9 | COC1/C=C\C=C(/C)C(=O)NC2=CC(=O)C(=O)C(=C2O)CC(C)CC(OC)C(O)C(C)/C=C(\C)C1OC(N)=O (configuration not stated) | – | 13.9
10 | O=c1[nH]ncc(Br)c1Br | 1.65 | 3.06
11 | COc1ccc(-c2cc(=O)c3c(OC)c(OC)c(OC)cc3o2)cc1 | – | 81.5

Each compound was assayed on MCF7 breast (assay: inhibition of tumour cell growth, NCI panel, 48 h).

Row | Compound | GI50 [µM] | TGI [µM]
12 | CC[CH2][Sn]([CH2]CC)([O]C(=O)c1cccnc1SC)[O][Sn]([CH2]CC)([CH2]CC)[O]C(=O)c1cccnc1SC | 0.495 | 1.72
13 | Oc1ccc(CN2CCC(N3CCCCC3)CC2)c2cccnc12 | 21.5 | > 100
14 | CC[C@@]1(O)C(=O)OCc2c1cc1n(c2=O)Cc2c-1nc1cc3c(cc1c2CCl)OCO3 | < 0.01 | > 100
15 | N#Cc1ccc(O)c(C2=NCC(c3cccc(Oc4ccccc4)c3)O2)c1 (configuration not stated) | 0.792 | 15.8
16 | CC1(C)OC2[C@@H](CNC(=O)NC(=O)NC(=O)CI)O[C@@H](n3cnc4c(NC(=O)Nc5ccccc5)ncnc43)[C@H]2O1 (some centres not stated) | 6.17 | 14.2
17 | COc1cc(C2=C(c3ccccc3)COC2=O)cc(OC)c1OC | 0.537 | > 100
18 | COc1cc(C2NC(=O)c3ccccc3N2)ccc1OCCCCCOc1c(OC)cc(C2=NOC(c3cc(OC)c(OC)c(OC)c3)C2)cc1OC (configuration not stated) | 0.356 | > 100
19 | CS(=O)(=O)c1ccc([C@H]2O[C@@H](CO)C[C@]2(O)c2ccc(S(C)(=O)=O)cc2)cc1 | > 100 | > 100
20 | CC(=O)OC[C@]1(C)C=C2C(=O)[C@](C)(O)C3(CC3)C(C)=C2[C@H]1O | 0.0273 | 15.5
21 | Oc1ccc(NCc2nc3ccccc3[nH]2)cc1 | 32.8 | > 100
22 | C[C@]12CC[C@H]3[C@@H](CC=C4C[C@@H](O)CC[C@@]43C)[C@@H]1CC[C@@H]2N(CCO)CCO | – | > 100
23 | O=C1c2cc(Cl)ccc2S(=O)(=O)c2c(NCCCNCCO)nc3ccccc3c21 | 1.52 | 3.71
24 | CC(C)(C)OC(=O)N1CCc2c(sc3ncnc(N/N=C/c4cccc5ccccc45)c23)C1 | 3.14 | > 100
25 | CC[C@@H]1CN(C)[C@H]2Cc3c([nH]c4ccccc34)C(=O)C[C@H]1C2C(=O)OC (some centres not stated) | – | > 100
26 | CCN(CC)c1ccc(/C=C/c2ccc3cc(C)ccc3[n+]2CC)cc1 | 0.0773 | 3.26
27 | Cc1ccc2c(c1)[n+]([O-])c(N)n[n+]2[O-] | – | > 100
28 | COC1/C=C\C=C(/C)C(=O)NC2=CC(=O)C(=O)C(=C2O)CC(C)CC(OC)C(O)C(C)/C=C(\C)C1OC(N)=O (configuration not stated) | – | > 42.4
29 | O=c1[nH]ncc(Br)c1Br | 2 | 11
30 | COc1ccc(-c2cc(=O)c3c(OC)c(OC)c(OC)cc3o2)cc1 | – | > 100

Each compound was assayed on MDA-MB-231 breast (assay: inhibition of tumour cell growth, NCI panel, 48 h).

Row | Compound | GI50 [µM] | TGI [µM]
31 | CC[CH2][Sn]([CH2]CC)([O]C(=O)c1cccnc1SC)[O][Sn]([CH2]CC)([CH2]CC)[O]C(=O)c1cccnc1SC | 1.34 | 2.76
32 | Oc1ccc(CN2CCC(N3CCCCC3)CC2)c2cccnc12 | 22.4 | > 100
33 | CC[C@@]1(O)C(=O)OCc2c1cc1n(c2=O)Cc2c-1nc1cc3c(cc1c2CCl)OCO3 | 1.38 | 20.7
34 | N#Cc1ccc(O)c(C2=NCC(c3cccc(Oc4ccccc4)c3)O2)c1 (configuration not stated) | 1.28 | 12
35 | CC1(C)OC2[C@@H](CNC(=O)NC(=O)NC(=O)CI)O[C@@H](n3cnc4c(NC(=O)Nc5ccccc5)ncnc43)[C@H]2O1 (some centres not stated) | 9.42 | 19.4
36 | COc1cc(C2=C(c3ccccc3)COC2=O)cc(OC)c1OC | 3.2 | > 100
37 | COc1cc(C2NC(=O)c3ccccc3N2)ccc1OCCCCCOc1c(OC)cc(C2=NOC(c3cc(OC)c(OC)c(OC)c3)C2)cc1OC (configuration not stated) | 14.8 | > 75.4
38 | CS(=O)(=O)c1ccc([C@H]2O[C@@H](CO)C[C@]2(O)c2ccc(S(C)(=O)=O)cc2)cc1 | > 100 | > 100
39 | CC(=O)OC[C@]1(C)C=C2C(=O)[C@](C)(O)C3(CC3)C(C)=C2[C@H]1O | 0.152 | 0.806
40 | Oc1ccc(NCc2nc3ccccc3[nH]2)cc1 | 38.4 | > 100
41 | C[C@]12CC[C@H]3[C@@H](CC=C4C[C@@H](O)CC[C@@]43C)[C@@H]1CC[C@@H]2N(CCO)CCO | – | > 100
42 | O=C1c2cc(Cl)ccc2S(=O)(=O)c2c(NCCCNCCO)nc3ccccc3c21 | 1.49 | 2.94
43 | CC(C)(C)OC(=O)N1CCc2c(sc3ncnc(N/N=C/c4cccc5ccccc45)c23)C1 | 5.93 | > 100
44 | CC[C@@H]1CN(C)[C@H]2Cc3c([nH]c4ccccc34)C(=O)C[C@H]1C2C(=O)OC (some centres not stated) | – | > 100
45 | CCN(CC)c1ccc(/C=C/c2ccc3cc(C)ccc3[n+]2CC)cc1 | 0.215 | 2.16
46 | Cc1ccc2c(c1)[n+]([O-])c(N)n[n+]2[O-] | – | > 100
47 | COC1/C=C\C=C(/C)C(=O)NC2=CC(=O)C(=O)C(=C2O)CC(C)CC(OC)C(O)C(C)/C=C(\C)C1OC(N)=O (configuration not stated) | – | 4.22
48 | O=c1[nH]ncc(Br)c1Br | 1.68 | 3.56
